From ChEMBL document CHEMBL1137849, “Rational design of 6-methylsulfonylindoles as selective cyclooxygenase-2 inhibitors” (Bioorg Med Chem Lett, 2004)

Assays:
[1] = target: T1, Prostaglandin G/H synthase 2 (Homo sapiens, UniProt P35354); assay: In vitro inhibitory concentration against Prostaglandin G/H synthase 2 enzyme activity
T1 sequence (P35354 whole entry): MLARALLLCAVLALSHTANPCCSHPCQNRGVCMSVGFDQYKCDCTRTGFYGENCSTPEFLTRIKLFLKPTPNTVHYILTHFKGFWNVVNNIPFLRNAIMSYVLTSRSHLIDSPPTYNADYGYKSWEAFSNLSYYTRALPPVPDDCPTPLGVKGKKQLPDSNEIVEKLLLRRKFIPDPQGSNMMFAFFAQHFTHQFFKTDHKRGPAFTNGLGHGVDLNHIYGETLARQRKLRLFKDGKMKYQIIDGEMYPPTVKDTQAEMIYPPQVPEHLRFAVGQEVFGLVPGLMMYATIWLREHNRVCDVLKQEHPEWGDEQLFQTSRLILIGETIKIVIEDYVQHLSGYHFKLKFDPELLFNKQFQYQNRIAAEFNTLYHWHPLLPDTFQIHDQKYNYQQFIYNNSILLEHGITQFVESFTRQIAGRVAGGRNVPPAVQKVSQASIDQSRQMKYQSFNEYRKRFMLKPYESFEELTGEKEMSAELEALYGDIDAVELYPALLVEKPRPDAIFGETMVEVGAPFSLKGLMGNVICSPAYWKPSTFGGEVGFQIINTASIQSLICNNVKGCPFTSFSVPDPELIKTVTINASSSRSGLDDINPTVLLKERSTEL

[2] = target: T2, Prostaglandin G/H synthase 1 (Homo sapiens, UniProt P23219); assay: Inhibitory concentration against human whole blood Prostaglandin G/H synthase 1 enzyme activity
T2 sequence (P23219 whole entry): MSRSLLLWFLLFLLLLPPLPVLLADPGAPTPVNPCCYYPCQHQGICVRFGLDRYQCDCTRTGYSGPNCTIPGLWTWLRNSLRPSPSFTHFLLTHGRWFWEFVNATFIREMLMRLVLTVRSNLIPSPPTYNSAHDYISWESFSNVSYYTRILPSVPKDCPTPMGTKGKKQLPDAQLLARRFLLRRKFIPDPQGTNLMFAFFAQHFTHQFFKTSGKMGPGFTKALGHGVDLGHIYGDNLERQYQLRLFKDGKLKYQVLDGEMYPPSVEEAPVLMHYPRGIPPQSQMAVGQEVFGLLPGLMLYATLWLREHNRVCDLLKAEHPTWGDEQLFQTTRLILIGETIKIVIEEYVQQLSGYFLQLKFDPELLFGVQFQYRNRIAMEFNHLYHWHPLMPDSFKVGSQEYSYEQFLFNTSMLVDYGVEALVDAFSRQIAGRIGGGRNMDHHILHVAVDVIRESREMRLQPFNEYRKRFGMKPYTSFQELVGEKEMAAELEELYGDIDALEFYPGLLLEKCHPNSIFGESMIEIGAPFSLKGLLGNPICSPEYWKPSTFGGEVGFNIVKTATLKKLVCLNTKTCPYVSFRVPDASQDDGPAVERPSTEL

[3] = target: T1, Prostaglandin G/H synthase 2; assay: Inhibitory concentration against human whole blood Prostaglandin G/H synthase 2 enzyme activity was determined
[4] = In vitro inhibitory concentration against Prostaglandin G/H synthase 1 enzyme activity
[5] = In vitro inhibitory concentration against Prostaglandin G/H synthase 1
[6] = Area under curve plasma concentration of compound in rat when administered perorally at 10 mg/kg dose; format: ADME, organism-based; design: dose 10 mg/kg, route oral; details: in vivo, po
[7] = target: T2, Prostaglandin G/H synthase 1; assay: Inhibitory concentration against human whole blood Prostaglandin G/H synthase 1
[8] = Plasma half life of compound was determined in rat; format: ADME

| SMILES | IC50 [1] [µM] | IC50 [2] [µM] | IC50 [3] [µM] | IC50 [4] [µM] | IC50 [5] [µM] | AUC [6] [µM·h] | IC50 [7] [µM] | half-life [8] [h] |
| --- | --- | --- | --- | --- | --- | --- | --- | --- |
| CS(=O)(=O)c1ccc2c(Sc3ccc(F)cc3)c(C(N)=O)[nH]c2c1 | 1.21 | > 40 | > 40 |  |  |  |  |  |
| COc1ccc(C(=O)c2c(C)[nH]c3cc(S(C)(=O)=O)ccc23)cc1 |  | 3.5 | 2.6 | > 40 |  |  |  |  |
| COC(=O)c1[nH]c2cc(S(C)(=O)=O)ccc2c1Sc1ccc(F)cc1F | 0.38 | 17.2 | 0.38 |  |  |  |  |  |
| Cc1[nH]c2cc(S(C)(=O)=O)ccc2c1Sc1ccccn1 | 1.78 | 30 | 5.2 |  |  |  |  |  |
| Cc1[nH]c2cc(S(C)(=O)=O)ccc2c1Cc1ccccc1Cl | 0.07 | 118 | 5.5 |  | > 40 |  |  |  |
| COc1ccc(Sc2c(C)[nH]c3cc(S(C)(=O)=O)ccc23)cc1 | 0.47 | 18 | 4.8 | 9 |  |  |  |  |
| CS(=O)(=O)c1ccc2c(Sc3ccc(F)cc3)c(CO)[nH]c2c1 | 0.42 | > 100 | 5.9 |  |  |  |  |  |
| CS(=O)(=O)c1ccc2c(Sc3ccc(F)cc3)c(C#N)[nH]c2c1 |  | > 125 | 2.3 |  |  |  |  |  |
| CNC(=O)c1[nH]c2cc(S(C)(=O)=O)ccc2c1Sc1ccc(F)cc1F | > 40 |  |  |  |  |  |  |  |
| Cc1[nH]c2cc(S(C)(=O)=O)ccc2c1Cc1ccc(Cl)cc1 | 0.26 | 71.1 | 5.6 | > 40 |  |  |  |  |
| COc1ccc(Sc2c(C#N)[nH]c3cc(S(C)(=O)=O)ccc23)c(Cl)c1 | 0.33 | 8.1 | 1.09 |  |  |  |  |  |
| COc1ccc(Oc2c(C)[nH]c3cccc(S(C)(=O)=O)c23)cc1 | 0.2 | 6 | 1.6 | > 30 |  |  |  |  |
| CC(=O)OCc1[nH]c2cc(S(C)(=O)=O)ccc2c1Sc1ccccc1Cl | > 40 |  |  |  |  |  |  |  |
| CS(=O)(=O)c1ccc2c(Sc3ccccc3Cl)c(C#N)[nH]c2c1 | 0.13 | > 67 | 0.57 |  |  | 56 |  |  |
| Cc1[nH]c2cc(S(C)(=O)=O)ccc2c1Oc1ccc(F)cc1F | 0.11 | 33 | 4.1 | 39.5 |  |  |  |  |
| Cc1[nH]c2cc(S(C)(=O)=O)ccc2c1Oc1ccc(F)cc1 | 0.03 |  | 2 | > 40 |  | 35 | 37 | 6.2 |

| SMILES | IC50 [1] [µM] | IC50 [2] [µM] | IC50 [3] [µM] | IC50 [4] [µM] | IC50 [5] [µM] | AUC [6] [µM·h] | IC50 [7] [µM] | half-life [8] [h] |
| --- | --- | --- | --- | --- | --- | --- | --- | --- |
| CS(=O)(=O)Cc1[nH]c2cc(S(C)(=O)=O)ccc2c1Sc1ccccc1Cl | > 40 |  |  |  |  |  |  |  |
| Cc1[nH]c2cc(S(C)(=O)=O)ccc2c1Sc1ccc(F)cc1F |  | 18.2 | 0.77 |  |  | 118 |  |  |
| Cc1[nH]c2cc(S(C)(=O)=O)ccc2c1[S+]([O-])c1ccc(F)cc1 (centres undefined) | > 40 |  |  |  |  |  |  |  |
| CS(=O)(=O)c1ccc2c(Sc3ccc(F)cc3F)c(C#N)[nH]c2c1 | 0.94 | > 60 | 1.27 |  |  | 316 |  | 6.3 |
| COc1ccc(Cc2c(C)[nH]c3cc(S(C)(=O)=O)ccc23)cc1 | 0.27 | 7.3 | 5.1 | > 45 |  |  |  |  |
| Cc1[nH]c2cc(S(C)(=O)=O)ccc2c1Cc1ccc(F)cc1F | 0.26 | 98 | 8.4 | > 40 |  | 72 |  | 4.1 |
| Cc1[nH]c2cc(S(C)(=O)=O)ccc2c1Sc1ccc(F)cc1 | 0.02 | 55.7 | 2.2 | > 40 |  |  |  |  |
| CS(=O)(=O)c1ccc2c(Sc3ccc(F)cc3)c(C(=O)O)[nH]c2c1 | > 40 |  |  |  |  |  |  |  |
| Cc1[nH]c2cc(S(C)(=O)=O)ccc2c1Oc1ccc(Cl)cc1 | 0.3 | 12 | 3.8 | 30 |  |  |  |  |
| COc1ccc(Oc2c(C)[nH]c3cc(S(C)(=O)=O)ccc23)cc1 | 0.2 | 6 | 1.6 | > 30 |  |  |  |  |
| CS(=O)(=O)c1ccc2c(Sc3ccc(F)cc3F)c(C(N)=O)[nH]c2c1 | 2.24 | > 40 | > 40 |  |  |  |  |  |
| Cc1[nH]c2cc(S(C)(=O)=O)ccc2c1S(=O)(=O)c1ccc(F)cc1 | > 40 |  |  |  |  |  |  |  |
| Cc1[nH]c2cc(S(C)(=O)=O)ccc2c1Cc1ccc(F)cc1 | 0.08 | 63.9 | 11.3 | > 40 |  |  |  |  |
| Cc1[nH]c2cc(S(C)(=O)=O)ccc2c1C(=O)c1ccc(F)cc1 | 0.66 | 2.44 | 1.72 | 100 |  |  |  |  |
| Cc1[nH]c2cc(S(C)(=O)=O)ccc2c1Oc1ccc(Cl)cc1Cl | 0.11 | 33 | 4.1 | 25.8 |  |  |  |  |
| COC(=O)c1[nH]c2cc(S(C)(=O)=O)ccc2c1Sc1ccc(F)cc1 | 0.8 | 9.3 | 1.1 |  |  |  |  |  |
